For test [1], the target named is T1, bovine carbonic anhydrase II (CAII) (Bos taurus, UniProt P00921).
T1 construct: purchased Sigma-Aldrich C7749
The test is described as follows: Carbonic anhydrase II inhibition assay (esterase activity on p-nitrophenyl acetate). Conditions: for remaining activity at 0.0001024 µM: 0.1024 nM compound; for remaining activity at 0.0001024 µM / remaining activity at 0.000512 µM / remaining activity at 0.00256 µM / remaining activity at 0.064 µM / remaining activity at 0.32 µM / remaining activity at 1.6 µM / remaining activity at 8 µM / remaining activity at 200 µM / remaining activity at 40 µM: source data of Fig. 2c, read-out: Normalized CA II Activity (Mean); for remaining activity at 0.000512 µM: 0.512 nM compound; for remaining activity at 0.00256 µM: 2.56 nM compound; for remaining activity at 0.064 µM: 64 nM compound; for remaining activity at 0.32 µM: 320 nM compound; for remaining activity at 1.6 µM: 1600 nM compound; for remaining activity at 8 µM: 8000 nM compound; for remaining activity at 200 µM: 200000 nM compound; for IC50: mean ± SE, three independent measurements, n.d: not detected; for remaining activity at 40 µM: 40000 nM compound. It is filed as biochemical. On the procedure:
CAII inhibition assay was performed to measure the inhibitory effect of re-synthesized CBS-conjugates. The esterase activity of CAII with a chromogenic substrate p-nitrophenyl acetate (pNPA) was measured. The rates of hydrolysis were determined by an increase of absorption at 410 nm after incubating different compounds with CAII. Re-synthesized compounds were diluted in a serial spanning mM to μM concentrations. […] 5 µl of pNPA (50 mM in 20% DMSO) was added to the plate right before the measurement. The absorption was measured at 37 °C each 10 sec for 15 min using a Beckman Coulter’s Paradigm Detection Platform (Brea, USA). The initial Vmax was obtained from the increase of absorption and the Vmax was plotted against the inhibitor concentrations and logistic fitting was performed to obtain IC50 values using Origin 2019b (OriginLab) software.

The target of the next test is T2, bovine trypsin (Bos taurus, UniProt P00760).
T2 construct: purchased Sigma-Aldrich T8003
T2 sequence (P00760 24-246): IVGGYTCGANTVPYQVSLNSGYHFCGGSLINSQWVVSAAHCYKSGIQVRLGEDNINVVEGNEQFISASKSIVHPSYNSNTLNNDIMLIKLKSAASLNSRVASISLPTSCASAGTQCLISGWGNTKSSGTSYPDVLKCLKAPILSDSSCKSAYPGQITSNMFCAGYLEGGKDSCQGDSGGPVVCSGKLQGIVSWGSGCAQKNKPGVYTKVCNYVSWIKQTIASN
The test is described as follows: Trypsin inhibition assay (proteolytic activity on BApNA). Conditions: fraction of uninhibited activity. It is filed as biochemical. On the procedure: The inhibition by the benzamidine derivatives against trypsin was measured using an assay probing the enzyme proteolytic activity on the substrate Nα-Benzoyl-DL-arginine-4-nitroanilide hydrochloride (BApNA). […] 5 µl of BApNA solution (10 mM, dissolved in DMSO) were added immediately prior to the measurement. The final total volume was 100 µl per well. The measurements were performed in a Low Binding 384-well plate. The absorption was measured at 410 nm in intervals of 10 sec for 15 min at 37 °C using a Beckman Coulter’s Paradigm Detection Platform (Brea, USA). The measurements were performed in triplicate. The activity of trypsin was calculated by the hydrolysis rate of BApNA after subtraction of the background-hydrolysis rate. The curves were plotted as a function of the concentration of the inhibitor against the relative enzyme activity. Vmax was derived from the detected absorption signal for each concentration and logistic fitting was performed to obtain IC50 values using Origin 2019b (OriginLab).

T1 sequence (P00921 whole entry): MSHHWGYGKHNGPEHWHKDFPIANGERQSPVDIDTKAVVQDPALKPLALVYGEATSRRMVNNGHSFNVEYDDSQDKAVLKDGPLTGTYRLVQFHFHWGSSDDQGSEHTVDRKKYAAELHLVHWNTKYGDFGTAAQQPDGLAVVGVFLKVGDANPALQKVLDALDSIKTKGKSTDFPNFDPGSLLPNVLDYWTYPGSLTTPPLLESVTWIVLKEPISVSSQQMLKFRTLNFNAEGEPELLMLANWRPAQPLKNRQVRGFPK

As to `NS(=O)(=O)c1ccc(NC(=O)/C=C/c2ccc(-c3ccccc3C(F)(F)F)o2)cc1` [Compound C-0], in test [1], the remaining activity at 0.0001024 µM came to 93.3%, the remaining activity at 0.000512 µM stood at 94%, the remaining activity at 0.00256 µM was found to be 93.6% and the remaining activity at 0.064 µM was determined as 84.9%. In test [1], the remaining activity at 0.32 µM was found to be 65.6%, the remaining activity at 1.6 µM amounted to 45.7%, the remaining activity at 8 µM came out at 38.2% and the remaining activity at 200 µM stood at 20.9%. The IC50 (as a rule, the concentration that gives 50% inhibition) in test [1] stood at 830 nM.

In the case of `NS(=O)(=O)c1ccc(NCc2ccc(C(=O)NCCNC(=O)/C=C/c3ccc(-c4ccccc4C(F)(F)F)o3)cc2)cc1` [Compound C-1], in test [1], the remaining activity at 0.0001024 µM is 93.8%, the remaining activity at 0.000512 µM is 93.6%, the remaining activity at 0.00256 µM was 90.4% and the remaining activity at 0.064 µM was found to be 87.7%. In test [1], the remaining activity at 0.32 µM came out at 71.8%, the remaining activity at 1.6 µM came to 43%, the remaining activity at 8 µM was 19.9% and the remaining activity at 40 µM was determined as 8.01%. Besides, in test [1], the remaining activity at 200 µM worked out at 2.91% and the IC50 worked out at 1290 ± 90 nM.

As to `NS(=O)(=O)c1ccc(NC(=O)COc2ccccc2OCC(=O)NCCNC(=O)/C=C/c2ccc(-c3ccccc3C(F)(F)F)o2)cc1` [Compound C-2], in test [1], the remaining activity at 0.0001024 µM was 91.3%, the remaining activity at 0.000512 µM was 93.6%, the remaining activity at 0.00256 µM is 96.1% and the remaining activity at 0.064 µM stood at 83%. Moreover, in test [1], the remaining activity at 0.32 µM came to 61.4%, the remaining activity at 1.6 µM was 43.3%, the remaining activity at 8 µM came out at 25.6% and the remaining activity at 40 µM is 15%. Further, in test [1], the remaining activity at 200 µM came out at 14.3% and the IC50 amounted to 670 nM. In addition, the “improvement in the IC50 value” in test [1] (compared with sulfanilamide) is given as 20 fold.

`NS(=O)(=O)c1ccc(NC(=O)c2ccc(-n3cc(CCC(=O)NCCNC(=O)/C=C/c4ccc(-c5ccccc5C(F)(F)F)o4)nn3)cc2)cc1` [Compound C-4]: in test [1], the remaining activity at 0.0001024 µM is 96.8%, the remaining activity at 0.000512 µM came to 89%, the remaining activity at 0.00256 µM worked out at 89.3% and the remaining activity at 0.064 µM amounted to 89.8%. Besides, in test [1], the remaining activity at 0.32 µM is 90.3%, the remaining activity at 1.6 µM turned out to be 65%, the remaining activity at 8 µM was 42.3% and the remaining activity at 40 µM came out at 33.8%. The remaining activity at 200 µM in test [1] was 9.19%.

For the compound `NS(=O)(=O)c1ccc(NC(=O)COCC(=O)NCCNC(=O)/C=C/c2ccc(-c3ccccc3C(F)(F)F)o2)cc1` [Compound C-5], in test [1], the remaining activity at 0.0001024 µM is 101%, the remaining activity at 0.000512 µM was found to be 100%, the remaining activity at 0.00256 µM stood at 96.7% and the remaining activity at 0.064 µM came to 90.2%. In test [1], the remaining activity at 0.32 µM was 78.3%, the remaining activity at 1.6 µM worked out at 56.6%, the remaining activity at 8 µM came out at 33.3% and the remaining activity at 40 µM stood at 19.1%. Besides, in test [1], the remaining activity at 200 µM stood at 11.8% and the IC50 turned out to be 2020 ± 310 nM.

As to `N=C(N)c1ccc(CNC(=O)C2CCC(C(=O)NCCNC(=S)Nc3cccc(I)c3)CC2)cc1` (centres unmarked) [Compound T-4], the “mean (Figure 3c, dose-response, relative trypsin activity)” value came out at 0.916 on bovine trypsin (Concentration 0.1024 nM); 1.0035 on bovine trypsin (Concentration 0.512 nM); 1.023 at bovine trypsin (Concentration 2.56 nM); 0.976 at bovine trypsin (Concentration 64 nM); 0.9546 at bovine trypsin (Concentration 320 nM); 0.8556 on bovine trypsin (Concentration 1600 nM). In addition, the “mean (Figure 3c, dose-response, relative trypsin activity)” value is listed as 0.5625 on bovine trypsin (Concentration 8000 nM); 0.1537 on bovine trypsin (Concentration 40000 nM); 0.03111 on bovine trypsin (Concentration 200000 nM); 0.01768 at bovine trypsin (Concentration 440000 nM); 0.9246 on bovine trypsin (Concentration […]).

`N=C(N)c1ccc(CNC2CC(=O)N(CC3CCC(C(=O)NCCNC(=S)Nc4cccc(I)c4)CC3)C2=O)cc1` (centres unmarked) [Compound T-5]: the “mean (Figure 3c, dose-response, relative trypsin activity)” value at bovine trypsin (Concentration 0.1024 nM) is 1.021; on bovine trypsin (Concentration 0.512 nM), 0.9691; at bovine trypsin (Concentration 2.56 nM), 0.9977; at bovine trypsin (Concentration 64 nM), 0.9529; on bovine trypsin (Concentration 320 nM) it was 0.962; at bovine trypsin (Concentration 1600 nM), 0.9553. Besides, the “mean (Figure 3c, dose-response, relative trypsin activity)” value at bovine trypsin (Concentration 8000 nM) amounted to 0.8147; at bovine trypsin (Concentration 40000 nM), 0.4599; at bovine trypsin (Concentration 200000 nM), 0.1722; at bovine trypsin (Concentration 650000 nM), 0.07286; on bovine trypsin (Concentration […]) it was 0.9721.

The record behind these values is publication PMC10023787, “Trio-pharmacophore DNA-encoded chemical library for simultaneous selection of fragments and linkers” (Nature Communications, 2023).
